Experimental data: patent US4329339A, “Anthracyclinones and derivatives thereof” (Hoffmann-La Roche Inc., priority 1980, dated 1982)
Values after ≈ are worked out from the molar mass of the structure shown. Read-outs that look alike come from different tables or passages of the source.

Key:
[1] = test system: Escherichia coli K-12 IAM 1264; assay: MIC, agar streak method, Escherichia coli K-12 IAM 1264; format: cell-based; details: IAM1264, Heart infusion agar
Excerpt: (§1) | (1) Heart infusion agar

[2] = test system: Escherichia coli NIHJ IFO 12734; assay: MIC, agar streak method, Escherichia coli NIHJ IFO 12734; format: cell-based; details: IFO12734, Heart infusion agar
Excerpt: as §1

[3] = test system: Proteus vulgaris IAM 1025; assay: MIC, agar streak method, Proteus vulgaris IAM 1025; format: cell-based; details: IAM1025, Heart infusion agar
Excerpt: as §1

[4] = test system: Micrococcus flavus ATCC 10240; assay: MIC, agar streak method, Micrococcus flavus ATCC 10240; format: cell-based; details: ATCC10240, Heart infusion agar
Excerpt: as §1

[5] = test system: Serratia marcescens IFO 12648; assay: MIC, agar streak method, Serratia marcescens IFO 12648; format: cell-based; details: IFO12648, Heart infusion agar
Excerpt: as §1

[6] = test system: Mycobacterium smegmatis IFO 13167; assay: MIC, agar streak method, Mycobacterium smegmatis IFO 13167; format: cell-based; details: Mycolicibacterium smegmatis, IFO13167, Heart infusion agar
Excerpt: as §1

[7] = test system: Bacillus subtilis IAM 1027; assay: MIC, agar streak method, Bacillus subtilis IAM 1027; format: cell-based; details: IAM1027, Heart infusion agar
Excerpt: as §1

[8] = test system: Klebsiella pneumoniae IFO 3512; assay: MIC, agar streak method, Klebsiella pneumoniae IFO 3512; format: cell-based; details: IFO3512, Heart infusion agar
Excerpt: as §1

[9] = test system: Candida albicans ATCC 10231; assay: MIC, agar streak method, Candida albicans ATCC 10231; format: cell-based; details: ATCC10231, Sabouraud dextrose agar
Excerpt: (§2) | (2) Sabouraud dextrose agar

[10] = test system: Staphylococcus epidermidis IFO 12993; assay: MIC, agar streak method, Staphylococcus epidermidis IFO 12993; format: cell-based; details: IFO12993, Heart infusion agar
Excerpt: as §1

P388 leukaemia = assay: Antitumour effect against P388 leukaemia in mice; format: in vivo; details: 1×10^6 P388 cells i.p., CDF1 mice
Protocol: The anthracycline glycosides provided by the present invention were tested against P388 leukaemia in mice. When CDF1 mice are inoculated with 1×10^6 cells of P388 intraperitoneally and each of the antibiotics is administered intraperitoneally on days 1, 5 and 9, the survival time of the treated mice is prolonged as shown in Table 7 hereinafter.

[11] = test system: Staphylococcus aureus 209P IAM 1011; assay: MIC, agar streak method, Staphylococcus aureus 209P IAM 1011; format: cell-based; details: Heart infusion agar
Excerpt: as §1

[12] = test system: Staphylococcus aureus 209P Stf; assay: MIC, agar streak method, Staphylococcus aureus 209P Stf; format: cell-based
[13] = Acute intraperitoneal toxicity in mice; details: mouse, in vivo, ip, judged 72 hours after a single intraperitoneal injection
[14] = test system: Saccharomyces cerevisiae ATCC 9763; assay: MIC, agar streak method, Saccharomyces cerevisiae ATCC 9763; format: cell-based; details: ATCC9763, Sabouraud dextrose agar
Excerpt: as §2

[15] = test system: Candida tropicalis ATCC 13803; assay: MIC, agar streak method, Candida tropicalis ATCC 13803; format: cell-based; details: ATCC13803, Sabouraud dextrose agar
Excerpt: as §2

Bacillus cereus Ro 179B = assay: MIC, agar streak method, Bacillus cereus Ro 179B; format: cell-based; details: RO179B, Heart infusion agar
Excerpt: as §1

[16] = test system: Pseudomonas aeruginosa IFO 12689; assay: MIC, agar streak method, Pseudomonas aeruginosa IFO 12689; format: cell-based; details: IFO12689, Heart infusion agar
Excerpt: as §1

Sarcina lutea IAM 1009 = assay: MIC, agar streak method, Sarcina lutea IAM 1009; format: cell-based; details: Micrococcus luteus, IAM1009, Heart infusion agar
Excerpt: as §1

[17] = 1.88 mg/kg/day i.p. on days 1, 5 and 9
[18] = 3.75 mg/kg/day i.p. on days 1, 5 and 9
[19] = 7.5 mg/kg/day i.p. on days 1, 5 and 9
[20] = 15 mg/kg/day i.p. on days 1, 5 and 9
[21] = Staphylococcus aureus 209P Stf, read-out: MIC

SMILES | MIC [1] | MIC [2] | MIC [3] | MIC [4] | MIC [5] | MIC [6] | MIC [7] | MIC [8] | MIC [9] | MIC [10] | Mean survival (T/C, %) (P388 leukaemia; [17]) | Mean survival (T/C, %) (P388 leukaemia; [18]) | Mean survival (T/C, %) (P388 leukaemia; [19]) | Mean survival (T/C, %) (P388 leukaemia; [20]) | MIC [11] | LD50 at 72 h [13] | MIC [14] | MIC [15] | MIC (Bacillus cereus Ro 179B) | MIC [16] | other results
COC(=O)C1c2cc3c(c(O)c2C(OC2CC(N(C)C)C(OC4CC(O)C(OC5CCC(=O)C(C)O5)C(C)O4)C(C)O2)CC1(C)O)C(=O)c1c(O)cccc1C3=O (stereo not shown) [Auramycin A] | > 100 µg/mL | > 100 µg/mL | > 100 µg/mL | 0.1 µg/mL (≈ 0.125 µM) | > 100 µg/mL | 6.25 µg/mL (≈ 7.83 µM) | 3.12 µg/mL (≈ 3.91 µM) | > 100 µg/mL | > 100 µg/mL | 3.12 µg/mL (≈ 3.91 µM) | 139% | 129% | 134% | 170% | 1.56 µg/mL (≈ 1.96 µM) | ~100 mg/kg | > 100 µg/mL | > 100 µg/mL | 0.39 µg/mL (≈ 0.489 µM) | > 100 µg/mL | MIC [12, 21]: 0.78 µg/mL (≈ 0.978 µM); MIC (Sarcina lutea IAM 1009): 0.1 µg/mL (≈ 0.125 µM)
COC(=O)C1c2cc3c(c(O)c2C(OC2CC(N(C)C)C(OC4CC5OC6CC(=O)C(C)OC6OC5C(C)O4)C(C)O2)CC1(C)O)C(=O)c1c(O)cccc1C3=O (stereo not shown) [Auramycin B] | > 100 µg/mL | > 100 µg/mL | > 100 µg/mL | 0.05 µg/mL (≈ 0.0628 µM) | > 100 µg/mL | 3.12 µg/mL (≈ 3.92 µM) | 0.78 µg/mL (≈ 0.98 µM) | > 100 µg/mL | > 100 µg/mL | 1.56 µg/mL (≈ 1.96 µM) | 113% | 124% | 149% | 196% | 0.39 µg/mL (≈ 0.49 µM) | ~100 mg/kg | > 100 µg/mL | > 100 µg/mL | 0.2 µg/mL (≈ 0.251 µM) | > 100 µg/mL | MIC [12, 21]: 0.39 µg/mL (≈ 0.49 µM); MIC (Sarcina lutea IAM 1009): 0.05 µg/mL (≈ 0.0628 µM)
COC(=O)C1c2cc3c(c(O)c2C(OC2CC(N(C)C)C(OC4CC(O)C(OC5CCC(=O)C(C)O5)C(C)O4)C(C)O2)CC1(O)CC(C)=O)C(=O)c1c(O)cccc1C3=O (stereo not shown) [Sulfurmycin A] | > 100 µg/mL | > 100 µg/mL | > 100 µg/mL | 0.2 µg/mL (≈ 0.238 µM) | > 100 µg/mL | 25 µg/mL (≈ 29.8 µM) | 0.78 µg/mL (≈ 0.929 µM) | > 100 µg/mL | > 100 µg/mL | 3.12 µg/mL (≈ 3.71 µM) | 124% | 134% | 144% | 165% | 0.78 µg/mL (≈ 0.929 µM) | ~100 mg/kg | > 100 µg/mL | > 100 µg/mL | 0.2 µg/mL (≈ 0.238 µM) | > 100 µg/mL | MIC ([12]; Staphylococcus aureus, 209P): 0.2 µg/mL (≈ 0.238 µM); MIC (Sarcina lutea IAM 1009): 0.1 µg/mL (≈ 0.119 µM)
COC(=O)C1c2cc3c(c(O)c2C(OC2CC(N(C)C)C(OC4CC5OC6CC(=O)C(C)OC6OC5C(C)O4)C(C)O2)CC1(O)CC(C)=O)C(=O)c1c(O)cccc1C3=O (stereo not shown) [Sulfurmycin B] | > 100 µg/mL | > 100 µg/mL | > 100 µg/mL | 0.1 µg/mL (≈ 0.119 µM) | > 100 µg/mL | 6.25 µg/mL (≈ 7.46 µM) | 0.78 µg/mL (≈ 0.931 µM) | > 100 µg/mL | > 100 µg/mL | 1.56 µg/mL (≈ 1.86 µM) | 124% | 124% | 155% | 165% | 0.78 µg/mL (≈ 0.931 µM) | 25 to 50 mg/kg | > 100 µg/mL | > 100 µg/mL | 0.39 µg/mL (≈ 0.465 µM) | > 100 µg/mL | MIC ([12]; Staphylococcus aureus, 209P): 0.39 µg/mL (≈ 0.465 µM); MIC (Sarcina lutea IAM 1009): 0.1 µg/mL (≈ 0.119 µM)
